# Measured values: US20260078099A1, “COMPOUND, PREPARATION METHOD THEREOF, AND LIPID NANOPARTICLE AND PHARMACEUTICAL COMPOSITION” (priority 2023, published 2026)
# How the values were obtained:
# [1] = Dose-response study, Luc mRNA intramuscular; assay type: in vivo; details: mRNA doses 0.25, 0.05 and 0.01 mg/kg
# Experimental: Samples containing firefly luciferase (Luc) mRNA were administered intramuscularly to evaluate protein expression. […] As the dose decreased, the injection site's expression proportion increased. A26, A47, and B38 maintained injection site flux levels of 0.3-3×10^10 (p/s) across all doses.
# [2] = LNP encapsulation efficiency (Quant-it Ribogreen); assay type: physicochemical; details: mRNA LNP, cationic lipid/DSPC/cholesterol/PEG-lipid 50:10:38.5:1.5
# [3] = LNP zeta potential; assay type: physicochemical; details: mRNA LNP
# [4] = tested on: mice; assay: Bioluminescent study, intramuscular injection of F-luc mRNA LNPs; assay type: in vivo; details: F-luc luminescence flux normalized to MC3; 0.25 mg/kg intramuscular, mice n=3, 6-hour time point
# Method in brief: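 Mice (n=3) received LNP-formulated F-luc mRNA at 0.25 mg/kg intramuscularly. Bioluminescence was read 6 h after dosing. Test LNPs were made with an MC3 formulation, and PBS served as control in some groups.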
# [5] = LNP size and PDI by dynamic light scattering; assay type: physicochemical; details: for PDI / Size (nm): mRNA LNP, cationic lipid/DSPC/cholesterol/PEG-lipid 50:10:38.5:1.5; for particle sizes by dynamic light scattering (FIG. 22): mRNA-loaded LNPs
SMILES,Encapsulation efficiency (%) [2],Zeta potential (mV) [3],PDI [5],Size (nm) [5],dose-response of Luc expression [1],Relative Total flux [4],particle sizes by dynamic light scattering (FIG. 22) [5]
CCCCCCCCNC(=O)C(CCCCCCCC)N(CCCN(C)C)C(=O)CCCCCCC(=O)OC(CCCCCCCC)CCCCCCCC (stereo not drawn) [Compound A26],94.09%,2.30 mV,0.11,94.21 nm,clear dose-response gradient,A (A: ≥2),approximately 100 nm
CCCCCCC(CCCCCC)OC(=O)CCCCCCCCCNC(=O)C(CCCCCCCCCC(=O)OC(CCCCCC)CCCCCC)N(CCCN1CCN(C)CC1)C(=O)CCCN1CCN(C)CC1 (stereo not drawn) [Compound E9],82.13%,−15.91 mV,0.593,91.81 nm,,C (C: ≥0.1 and <1),
"CCCCC/C=C\C/C=C\CCCCCCCCC(CCCCCCCC/C=C\C/C=C\CCCCC)OC(=O)CCCN(C)C [DLin-MC3, reference compound]",95.24%,−3.25 mV,0.036,87.75 nm,,B (B: ≥1 and <2),
"CCCCCCCCCCCOC(=O)CCCCCN(CCO)CCCCCCCC(=O)OC(CCCCCCCC)CCCCCCCC [SM-102, reference compound]",96.25%,−1.23 mV,0.058,89.08 nm,,A (A: ≥2),approximately 100 nm

# Now from value to compound, other results behind:
Encapsulation efficiency (%) [2],Zeta potential (mV) [3],PDI [5],Size (nm) [5],SMILES,dose-response of Luc expression [1],Relative Total flux [4],particle sizes by dynamic light scattering (FIG. 22) [5]
69.71%,−16.71 mV,0.185,104.5 nm,CCCCCCC(CCCCCC)OC(=O)CCCCCCCCCNC(=O)C(CCCCCCCCCC(=O)OC(CCCCCC)CCCCCC)N(CCN1CCN(CCO)CC1)C(=O)CCN1CCN(CCO)CC1 (stereo not drawn) [Compound E10],,C (C: ≥0.1 and <1),
93.77%,0.85 mV,0.158,85.75 nm,CCCCCCC(CCCCCC)OC(=O)CCCCCCCCCNC(=O)C(CCCCCCCCCC(=O)OC(CCCCCC)CCCCCC)N(CCCN1CCN(CO)CC1)C(=O)CCCN1CCN(CCO)CC1 (stereo not drawn) [Compound E11],,B (B: ≥1 and <2),
